Entries after “also recorded” stand apart in the source; their conditions may differ.

In one series the target is 5-HT1A receptor. Also on record: method as in PMID 38619283. As to conditions: cited from earlier work.
A further series has as its target 5-HT7 receptor. Also on record: method as in PMID 38619283. The following applies: cited from earlier work.
In series [1] the test system is mice. Nature of the series: Amphetamine-induced hyperactivity. The following applies: 7.5 mg/kg i.p. 60 min before test, amphetamine 3 mg/kg 30 min later. The series is classed as in vivo. The procedure:
(§1) The investigated compound (SER2AAK2) was bought from Enamine (purity over 95%) and in all tests was administered intraperitoneally (i.p.), spread in a drop of Tween 80, and diluted with an aqueous solution of 0.5% methylcellulose (tylose) and injected 60 min before the tests in a volume of 10 mL/kg. Control groups received tylose injections of the same volume and via the same route of administration.
Locomotor activity of the mice was assessed using the Opto-Varimex-4 Auto-Track system (Columbus Instruments, OH, USA). Each mouse was placed individually in a testing cage for 25 min—5 min for acclimatization, followed by 20 min of activity recording. (6a) The total distance traveled (in centimeters) was measured. Cages were cleaned with 10% ethanol between sessions.

For the next series, the system named is dopamine D2 receptor. Also on record: method as in PMID 38619283. The following applies: cited from earlier work.
Another series concerns the target CYP2D6 (Homo sapiens, UniProt P10635). Nature of the series: CYP2D6 luminescent assay (Glo kit). The procedure: The inhibitory potential of the compound against the CYP2D6 isoform was evaluated employing a methodology analogous to the CYP3A4 assay, albeit with a different set of reference compounds.
The effect of SERAAK2 on the activity of the cytochrome P450 isoforms CYP3A4 and CYP2D6 was tested using commercial luminescence assays (Glo kits bought from Promega, Medison, WI, USA). The experiment was performed twice with triplicate samples, following the manufacturer’s guidelines and established procedures.

A further series relates to SH-SY5Y cells. Nature of the series: MTS cytotoxicity assay in SH-SY5Y cells. Type of series: cell-based, human. As to conditions: 72 h. The procedure:
The cytotoxic potential of SERAAK2 was evaluated in two human-derived cell lines chosen for their physiological relevance: HepG2 (hepatocellular carcinoma) and SH-SY5Y (neuroblastoma). […] It is particularly noteworthy that the use of the SERAAK2 compound at a concentration of 30 µM reduces the number of viable cells below the level of the positive control (doxorubicin) at the same concentration (Table 3). […] Under the experimental conditions used, after 72 h of incubation, a fraction of doxorubicin-treated cells remains metabolically active and generates a low signal in the MTS assay. The enhanced signal reduction observed in the MTS assay for the tested compound, compared to doxorubicin, indicates strong cytotoxic activity leading to necrosis of the entire cell population.
An assessment of the cytotoxic potential of SERAAK2 was carried out utilizing the colorimetric MTS assay. This investigation was executed on both HepG2 and SH-SY5Y cell lines, adhering to an identical procedure. The cell lines, sourced from the American Type Culture Collection (Manassas, VA, USA), were cultured under standard conditions (5% CO2, 37 °C) in DMEM/F12 medium (#31330-038, ThermoFisher Scientific, Waltham, MA, USA). The medium was supplemented with 10% Fetal Bovine Serum (FBS, #A5256801, ThermoFisher Scientific) and a Penicillin–Streptomycin solution (#15140-122, ThermoFisher Scientific) until their use in the study. Cells within passage numbers 15 to 25 were plated in 96-well plates at a density of 5000 cells per well in 200 μL of medium and allowed to adhere during a 24 h incubation at 37 °C with 5% CO2. […] The plates were then subsequently returned to the 37 °C incubator, after which absorbance was recorded with a Spark microplate reader; this measurement occurred after 1 h for the HepG2 line and 3 h for the SH-SY5Y line. The ultimate cell viability percentage was determined by comparing results to the control wells, which represented 100% viability, and the wells treated with 10 μM doxorubicin, which were defined as 0% viability. […]
On the technique in general: Formazan colour is commonly taken as a measure of viable cells.

Series [2] relates to mice. Put plainly: Passive avoidance (PA) task, memory consolidation. As to conditions: 7.5 mg/kg, retention phase, vs vehicle control. The series is classed as in vivo. As to the method: as §1
The passive avoidance (PA) task measures a long-term memory, as it was reported by Venault et al.. The PA apparatus consists of a two-compartment acrylic box, one illuminated with fluorescent light (8 W) (10 cm × 13 cm × 15 cm) and another darkened (25 cm × 20 cm × 15 cm), connected by a guillotine door. Entrance of the animal to the darkened box was punished by an electric foot shock (0.15 mA for 2 s). The PA procedure was previously described. In particular, on the first day of the experiment [i.e., training (pre-test)], mice were placed individually into the illuminated compartment and allowed to explore this box. […] The latency time for entering the darkened compartment was recorded (TL1). […] The results were expressed as the latency index (LI), calculated by the following formula: TL1−TL2/TL1 where TL1 is the time needed to move to the dark compartment during a training session and TL2 is the time needed to re-enter the dark compartment, measured 24 h after TL1 (retention).

The subject of series [3] is mice. Nature of the series: Motor coordination, chimney test. The series is classed as in vivo. The following applies: 7.5 mg/kg i.p., 60 min before test, similar to control. The procedure:
as §1
The effects of the SER2AAK2 compound were also measured in the rotarod and chimney tests. In the rotarod test, mice were evaluated for their ability to maintain balance on a constantly rotating rod (18 rpm) for 1 min. The chimney test involved placing a mouse in a horizontal polymer tube (3 cm diameter, 25 cm length). Once the mouse reached the far end, the tube was positioned vertically, requiring the animal to climb backwards to exit. Right motor coordination was defined as exiting the chimney within 60 s. Prior to testing, mice underwent a 3-day training. Only those animals that were able to stay on the rotating rod or leave the chimney within the required time were included in the study.

CYP2D6, sequence (P10635 whole entry, canonical isoform): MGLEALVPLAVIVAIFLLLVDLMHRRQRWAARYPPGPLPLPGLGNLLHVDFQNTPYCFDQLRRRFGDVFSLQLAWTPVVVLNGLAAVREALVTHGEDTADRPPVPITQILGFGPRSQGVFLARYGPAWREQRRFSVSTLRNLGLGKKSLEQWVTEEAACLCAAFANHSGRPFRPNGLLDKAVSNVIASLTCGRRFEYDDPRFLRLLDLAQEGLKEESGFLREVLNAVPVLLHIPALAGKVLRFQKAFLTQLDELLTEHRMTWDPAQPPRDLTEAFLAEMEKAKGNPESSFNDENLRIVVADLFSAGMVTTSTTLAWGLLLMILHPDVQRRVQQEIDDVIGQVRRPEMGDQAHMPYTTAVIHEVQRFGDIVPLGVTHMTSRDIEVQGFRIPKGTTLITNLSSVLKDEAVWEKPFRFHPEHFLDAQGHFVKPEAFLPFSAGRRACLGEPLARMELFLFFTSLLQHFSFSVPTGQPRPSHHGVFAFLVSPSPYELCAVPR

By Ki is commonly meant a measure of affinity in units of concentration, obtained from inhibition or displacement. Broadly, the IC50 is the point on the concentration scale where inhibition reaches its midpoint. Higher therefore signals weaker potency. The inhibition is the relative decrease from the control value, in per cent. Read a high inhibition as a strong effect. Turning to `OC(CNCCc1c[nH]c2ccccc12)COc1ccc(Oc2ccccc2)cc1` (stereo not shown) [SERAAK2], the Ki was 153 ± 0.4 nM at 5-HT1A receptor and 914 ± 25 nM on 5-HT7 receptor. For the same compound, the amphetamine-induced hyperactivity entry in the series on mice [1] was “did not significantly modify this hyperactivity; also recorded: no effect”. The “percent of inhibition at 10 μM, dopamine D2 receptor” value in the series with dopamine D2 receptor is 23 ± 6%. The IC50 against CYP2D6 was 1000 nM. The compound further displayed an inhibition at 10 µM against CYP2D6 (human) of 90 ± 1%. In addition, in the series with SH-SY5Y cells (0.3 µM), the “cytotoxic effects in SH-SY5Y cells” value was “no cytotoxic effects”. Further, the “Percentage Reduction in the Number of Viable SH-SY5Y Cells [Mean ± SEM]” value in the series with SH-SY5Y cells (30 µM) is 108 ± 1%. Besides, the “PA memory consolidation, latency index” value with mice [2] is reported as “did not significantly change the latency index; also recorded: no effect on memory consolidation”. The “time to leave the chimney” value in the series with mice [3] was “about 13 s”.

The values are drawn from publication PMC12693327, “SERAAK2 as a Serotonin Receptor Ligand: Structural and Pharmacological In Vitro and In Vivo Evaluation” (Molecules, 2025).
